In paper PMC9323974, “Palladium(II) Complexes of Substituted Salicylaldehydes: Synthesis, Characterization and Investigation of Their Biological Profile” (Pharmaceuticals, 2022):
Read-outs that look alike come from different tables or passages of the source.

Legend:
[1] = molecular target: T1, BSA (Bos taurus, UniProt P02769); assay: BSA fluorescence quenching; assay type: binding, bovine; details: for ΔΙ/Ιο (%) BSA fluorescence quenching: BSA 3 μM; for K BSA-binding constant: Scatchard; for relative BSA-fluorescence emission intensity, % of the initial: final value
T1 construct: purchased Sigma-Aldrich Co
T1 sequence (P02769 25-607): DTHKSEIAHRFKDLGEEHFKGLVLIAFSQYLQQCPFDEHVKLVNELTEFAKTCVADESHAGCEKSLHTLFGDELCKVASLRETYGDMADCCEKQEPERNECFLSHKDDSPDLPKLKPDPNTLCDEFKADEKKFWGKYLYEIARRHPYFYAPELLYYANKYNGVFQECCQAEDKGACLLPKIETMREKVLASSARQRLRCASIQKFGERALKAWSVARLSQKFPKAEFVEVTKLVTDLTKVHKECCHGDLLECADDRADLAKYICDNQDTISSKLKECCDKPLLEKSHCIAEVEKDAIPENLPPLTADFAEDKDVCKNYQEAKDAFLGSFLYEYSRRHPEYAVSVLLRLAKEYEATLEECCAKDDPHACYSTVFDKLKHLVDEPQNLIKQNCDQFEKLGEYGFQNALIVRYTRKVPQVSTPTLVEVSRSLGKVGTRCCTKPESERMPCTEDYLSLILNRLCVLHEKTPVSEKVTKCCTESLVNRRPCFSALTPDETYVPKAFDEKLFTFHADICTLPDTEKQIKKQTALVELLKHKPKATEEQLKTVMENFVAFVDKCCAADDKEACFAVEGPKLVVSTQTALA
Protocol: S4 Interaction with serum albumins
S4.1 Study of the affinity for serum albumins
The albumin–binding study for the compounds was carried out by fluorescence emission quenching experiments using BSA (3 μM) or HSA (3 μM) in buffer solution (15 mM trisodium citrate and 150 mM NaCl at pH 7.0). The tested compounds were used as quenchers with gradually increasing concentrations to monitor the quenching of the emission intensity of tryptophan residues of BSA at 345 nm or HSA at 340 nm [S6]. The fluorescence emission spectra were recorded between 300–500 nm with excitation wavelength of 295 nm. All the experiments were conducted at room temperature. The fluorescence spectra of the compounds were recorded under the same experimental conditions and presented a low–intensity emission band in the region 395–415 nm.
Consequently, the SA fluorescence emission spectra were modified properly, by subtracting the spectra of the compounds, and quantitative studies followed.
The extent of the inner–filter effect can be roughly estimated with the following formula: […]
where Icorr= corrected intensity, Imeas= the measured intensity, c = the concentration of the quencher, d = the cuvette length (1 cm), ε(λexc) and ε(λem) = the ε of the quencher at the excitation and the emission wavelength, respectively, as calculated from the UV –vis spectra of the complexes [S 8].
The interaction of the quencher (i.e. compounds) with serum albumins [S6] was studied through the Stern–Volmer and Scatchard equations [S6] and corresponding graphs. The values of the respective Stern–Volmer constant KSV (M–1), the quenching constant k q (M–1s–1), the SA– binding constant K (M–1) and the number of binding sites per albumin (n) were calculated.
According to Stern–Volmer quenching equation [S6] (eq. S2), where I 0 = the initial tryptophan fluorescence intensity of SA, I = the tryptophan fluorescence intensity of SA after the addition of the quencher, kq = the quenching rate constants of SA, K SV = the dynamic quenching constant, τ0 = the average lifetime of SA without the quencher, [Q] = the concentration of the quencher), the Stern –Volmer constant (KSV, M–1) can be obtained by the slope of the diagram I0/I versus [Q]. Taking τ0 = 10–8 s as fluorescence lifetime of tryptophan in SA [S2], the quenching constant (kq, M–1s–1) is calculated from equation S3.
From the Scatchard equation (eq. S5) [S6]: […]
(1 picture or pasted object on this page, not shown here) […]
where n = the number of binding sites per albumin and K = the SA–binding constant. The K constant (M−1) is calculated from the slope in plots (ΔI/I0)/[Q] versus (ΔI/I0) and n is given by the ratio of y intercept to the slope [S9]. […]

[2] = molecular target: T2, HSA (Homo sapiens, UniProt P02768); assay: Competitive HSA-fluorescence studies with warfarin and ibuprofen; assay type: binding
T2 construct: purchased Sigma-Aldrich Co
T2 sequence (P02768 25-609): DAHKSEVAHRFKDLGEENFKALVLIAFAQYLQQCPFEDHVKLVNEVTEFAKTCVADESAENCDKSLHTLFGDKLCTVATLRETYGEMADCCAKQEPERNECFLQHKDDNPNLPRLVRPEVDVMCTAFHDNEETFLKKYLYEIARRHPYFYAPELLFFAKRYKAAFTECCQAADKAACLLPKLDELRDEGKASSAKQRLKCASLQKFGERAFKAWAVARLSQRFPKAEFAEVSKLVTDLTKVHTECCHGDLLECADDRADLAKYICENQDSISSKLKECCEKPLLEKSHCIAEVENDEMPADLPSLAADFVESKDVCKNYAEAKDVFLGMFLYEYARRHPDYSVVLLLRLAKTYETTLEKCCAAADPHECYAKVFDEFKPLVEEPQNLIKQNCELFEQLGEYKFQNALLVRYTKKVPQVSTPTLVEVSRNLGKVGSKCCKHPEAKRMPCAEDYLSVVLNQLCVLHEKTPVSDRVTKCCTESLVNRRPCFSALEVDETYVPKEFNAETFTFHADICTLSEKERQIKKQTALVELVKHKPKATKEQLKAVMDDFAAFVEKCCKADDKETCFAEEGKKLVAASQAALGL

[3] = molecular target: CT DNA; assay: CT DNA binding by UV-vis spectroscopy; design: species or system calf; details: Wolfe–Shimer equation
Protocol: page 8: […] spectroscopy, viscosity measurements and fluorescence emission spectroscopy studies. […] UV-vis spectroscopy was used for the evaluation of the interaction of the compounds with CT DNA, and specifically the possible binding modes of the compounds to CT DNA. Control experiments with DMSO were performed and no changes in the spectra of CT DNA were observed. In order to determine the binding mode, the UV-vis spectra of the compounds were […] concentrations of CT DNA for diverse r (r = [complex]/[DNA]) values. Effective use of the changes […] compounds were calculated by the Wolfe-[…] equation (eq. […] εf) versus [DNA]: (eq. S1) where [DNA] = the concentration of DNA in base pairs, ε f= the extinction coefficient for the free compound at the corresponding λmax, εA = Aobsd/[compound] and εb= the extinction coefficient for the compound in the fully bound form. K b is given by the ratio of slope to the y intercept in plots [DNA]/(εA-εf) versus [DNA]. S3.2 CT DNA-binding studies by viscosity measurements […] presence of increasing amounts of the compounds. The experiments were executed at room temperature and the measurements are devised in a plot (η/η 0)1/3 versus r, where η = the viscosity of DNA in the presence of the compound, and η0 = the viscosity of neat DNA in buffer solution. […] In order to determine and confirm the DNA-binding mode of the compounds, a competitive study with EB as an intercalating marker is performed by fluorescence emission spectroscopy. Therefore, the EB-displacing ability of the compounds from its EB-DNA conjugate was examined. […] solution (150 mM NaCl and 15 mM trisodium citrate at pH 7.0). The potential intercalation of the compounds between the DNA-bases was studied by the addition of a certain amount of the 8 (1 picture or pasted object on this page, not shown here)

[4] = DPPH radical scavenging; details: compound 0.1 mM
Protocol: S1 Antioxidant biological assay
The antioxidant activity of the compounds was evaluated via their ability to scavenge in
vitro free radicals such as DPPH and ABTS and to reduce H2O2. All the experiments were carried
S1.1 Determination of the reducing activity of the stable radical DPPH
To an ethanolic solution of DPPH (0.1 mM) an equal volume solution of the compounds
(0.1 mM) in ethanol was added. Absolute ethanol was also used as control solution. The absorbance
at 517 nm was recorded at room temperature after 30 and 60 min, in order to examine the possible
existence of a potential time–dependence of the DPPH radical scavenging activity [S1]. The DPPH–
scavenging activity of the compounds was expressed as the percentage reduction of the absorbance
values of the initial DPPH solution (DPPH%). NDGA and BHT were used as reference compounds. […]

[5] = read-out: HSA-binding constant K, Marker: Ibuprofen, ibuprofen
[6] = read-out: HSA-binding constant K, Marker: Warfarin, warfarin

SMILES | Kd [1] | kq BSA-quenching constant [1] | Kd [2] | Kd [2, 5] | Kd [2, 6] | Kb (DNA-binding constant) [3] | DPPH% (30 min) [4] | DPPH% (60 min) [4] | ΔΙ/Ιο (%) BSA fluorescence quenching [1] | K BSA-binding constant [1] | relative BSA-fluorescence emission intensity, % of the initial [1] | HSA-binding constant K, Marker: Ibuprofen ([2]; ibuprofen) | HSA-binding constant K, No Marker [2] | HSA-binding constant K, Marker: Warfarin ([2]; warfarin) | HSA drug site preference ([2]; drug site I (warfarin) vs II (ibuprofen))
CCN(CC)c1ccc(C=O)c(O)c1 [4-Et2N-saloH, 4-diethylamino-salicylaldehyde, reference compound] | 2.4 µM | 1.41 (±0.06) × 10^13 M^−1 s^−1 | 2.48 µM | 23.8 µM | 4.39 µM | 5.06 (±0.14) × 10^5 M^−1 | 2.47 ± 0.09% | 3.20 ± 0.08% |  |  |  |  |  |  | 
COc1ccc(C=O)c(O)c1 [4-OMe-saloH, 4-methoxy-salicylaldehyde, reference compound] |  |  | 10.3 µM | 21.3 µM | 60.2 µM |  | 4.16 ± 0.10% | 6.27 ± 0.25% |  |  |  |  |  |  | 
O=Cc1cc(F)ccc1O [5-F-saloH, 5-fluoro-salicylaldehyde, reference compound] | 23.2 µM | 1.98 (±0.08) × 10^12 M^−1 s^−1 | 21.5 µM | 16.1 µM | 33.1 µM | 8.37 (±0.47) × 10^4 M^−1 | 3.96 ± 1.16% | 5.56 ± 1.06% |  |  |  |  |  |  | 
CCN(CC)c1ccc(C=O)c([O][Pd][O]c2cc(N(CC)CC)ccc2C=O)c1 [Complex 1, [Pd(4-Et2N-salo)2]] |  | 5.72 (±0.44) × 10^13 M^−1 s^−1 |  |  |  | 3.66 (±0.22) × 10^5 M^−1 | 2.45 ± 0.09% | 4.00 ± 0.53% | 92.9% | 1.08 (±0.06) × 10^5 M^−1 | 7.2% | 1.86 (±0.12) × 10^5 M^−1 | 1.25 (±0.06) × 10^5 M^−1 | 6.89 (±0.28) × 10^4 M^−1 | 
O=Cc1cc(Br)cc(Br)c1[O][Pd][O]c1c(Br)cc(Br)cc1C=O [Complex 2, [Pd(3,5-diBr-salo)2]] |  | 2.11 (±0.08) × 10^14 M^−1 s^−1 |  |  |  | 3.18 (±0.21) × 10^5 M^−1 | 7.99 ± 0.24% | 14.63 ± 0.53% | 97.5% | 1.50 (±0.06) × 10^6 M^−1 | 2.5% | 3.23 (±0.13) × 10^5 M^−1 | 4.12 (±0.15) × 10^5 M^−1 | 1.43 (±0.09) × 10^5 M^−1 | 
O=Cc1cc(Cl)cc(Cl)c1[O-].O=Cc1cc(Cl)cc(Cl)c1[O-].[Pd+2] [Complex 3, [Pd(3,5-diCl-salo)2]] |  | 1.11 (±0.04) × 10^14 M^−1 s^−1 |  |  |  | 1.90 (±0.12) × 10^6 M^−1 | 4.60 ± 0.20% | 2.91 ± 0.11% | 97.2% | 7.82 (±0.24) × 10^5 M^−1 | 2.8% | 3.78 (±0.14) × 10^5 M^−1 | 4.10 (±0.17) × 10^5 M^−1 | 2.47 (±0.09) × 10^5 M^−1 | 
O=Cc1cc(F)ccc1[O-].O=Cc1cc(F)ccc1[O-].[Pd+2] [Complex 4, [Pd(5-F-salo)2]] |  | 2.24 (±0.14) × 10^13 M^−1 s^−1 |  |  |  | 2.84 (±0.14) × 10^5 M^−1 | 14.82 ± 0.45% | 13.61 ± 0.48% | 85.7% | 8.79 (±0.13) × 10^4 M^−1 | 14.3% | 1.10 (±0.08) × 10^5 M^−1 | 1.38 (±0.05) × 10^5 M^−1 | 8.98 (±0.82) × 10^4 M^−1 | 
COc1ccc(C=O)c([O-])c1.COc1ccc(C=O)c([O-])c1.[Pd+2] [Complex 5, [Pd(4-OMe-salo)2]] |  | 2.17 (±0.09) × 10^14 M^−1 s^−1 |  |  |  | 1.27 (±0.10) × 10^6 M^−1 | 2.29 ± 0.36% | 3.00 ± 0.25% | 97.2% | 9.18 (±0.27) × 10^5 M^−1 | 2.8% | 1.45 (±0.17) × 10^4 M^−1 | 3.56 (±0.12) × 10^5 M^−1 | 1.00 (±0.18) × 10^5 M^−1 | did not seem to show firmly a selectivity
